Experimental data published in PMC11928319 (Nature Plants, 2025).

What was measured:
[1] = tested on: Arabidopsis wild type and efr mutant plants; experiment: elf18-induced shoot growth inhibition, shoot weight; type: in vivo, Arabidopsis thaliana; conditions: Arabidopsis Col-0, 1 µM, 2 weeks
[2] = tested on: filter-sterile supernatant of Rhodanobacter R179 (secreted peptidase(s)); experiment: Peptide quantification by mass spectrometry after incubation in cell-free supernatant of Rhodanobacter R179; type: in vitro ADME; conditions: for Log10(total_area_MS1) / percent_rel_axenic: incubation 1h; for Log10(total_area_MS1): MS1 precursor area; for percent_rel_axenic: peptide relative to axenic
Description: Elicitors were also supplemented into the medium prior to solidification at a final concentration of 1 µM. The flg22 ([…]) and AtPep1 ([…]) peptides were synthesized by EZbiolab. elf18^R179 (Ac-[…]) and elf18 (Ac-[…]) were synthesized by GenScript and EZbiolab, respectively. For inoculation with the bacterial supernatant, bacteria were cultivated overnight in XVM2 minimal medium (20 mM NaCl, 10 mM (NH4)2SO4, 5 mM MgSO4, 1 mM CaCl2, 0.16 mM KH2PO4, 0.32 mM K2HPO4, 0.01 mM FeSO4, 10 mM fructose, 10 mM sucrose, 0.03% Casamino acids, pH 6.7)[76] to a final concentration of OD600 = 0.4. Bacteria were pelleted by centrifugation (11,600 g, 2 min), and the supernatant was sterile-filtered using filter units with MF-Millipore membrane (0.22 µm; Millex). The supernatant was incubated in boiling water for 30 min for heat treatment. Then, 25 ml of 1× MS with 20 g l^−1 Bacto Agar was mixed with 25 ml of supernatant prior to medium solidification and poured into square petri dishes. Sterilized seeds were placed on solidified agar in square petri dishes and vertically incubated for 14 days.
Bacterial supernatants were prepared as described in ‘Agar-based cultivation of axenic plants and co-cultivation with bacteria, bacterial supernatants and elicitors’. Here, additionally, the peptides dRGF1 (DYSNPGHHP-Hyp-RHN) and PSY1 (D-Y(SO3H)-[…]-Hyp-Hyp-S) synthesized by Scilight Peptide were incubated for 1 h with 1 µM of peptides in a plant cultivation light chamber (day-light condition; see ‘Plant cultivation conditions’), and the samples were frozen at −20 °C until further processing. For the investigation of AtPep1 degradation, the AtPep1 peptide was first modified by acetylation (six to seven times). To this end, 100-µl aliquots of peptides were treated with 10 µl of NHS acetate solution (1 M NHS acetate in 50% ACN/PBS) and incubated for 30 min with shaking. The reaction was quenched by the addition of 100 µl of 100 mM Tris-HCl (pH 8.5) and incubated for 10 min. For comparison of the non-acetylated peptides with the above-described modified AtPep1 peptides, aliquots of the non-acetylated peptides were processed as described above, but without the modifying NHS reaction. To this end, 100-µl aliquots of the sample were mixed with 100 µl of PBS buffer (137 mM NaCl, 2.7 mM KCl, 10 mM Na2HPO4, 1.8 mM KH2PO4; pH 7.4). The samples were then further diluted with 100 µl of 100 mM Tris-HCl (pH 8.5) and incubated for 10 min. All samples were acidified with 5 µl of TFA and desalted using StageTips with C18 Empore disk membranes (3M)[109]. The samples were dried in a vacuum evaporator and dissolved in 10 µl of 2% ACN (0.1% TFA for analysis).
The samples were analysed using an EASY-nLC 1200 (Thermo Fisher) coupled to a QExactive Plus mass spectrometer (Thermo Fisher). Peptides were separated on 16-cm frit-less silica emitters (New Objective, 75 µm inner diameter), packed in-house with reversed-phase ReproSil-Pur C18 AQ 1.9 µm resin (Dr. Maisch). Peptides were loaded on the column and eluted for 50 min using a segmented linear gradient of 5% to 95% solvent B (0 min, 5% B; 0–5 min, 15% B; 5–35 min, 50% B; 35–45 min, 95% B; 45–50 min, 95% B) (solvent A: 0% ACN, 0.1% FA; solvent B: 80% ACN, 0.1% FA) at a flow rate of 300 nl min^−1. Mass spectra were acquired in data-dependent acquisition mode with a TOP10 method. Mass spectrometry spectra were acquired in the Orbitrap analyser with a mass range of 300–1,500 m/z at a resolution of 70,000 full width at half maximum (FWHM) and a target value of 3 × 10^6 ions. Precursors were selected with an isolation window of 1.3 m/z. Higher-energy collision dissociation (HCD) fragmentation was performed at a normalized collision energy of 25. Tandem mass spectrometry (MS/MS) spectra were acquired with a target value of 5 × 10^5 ions at a resolution of 17,500 FWHM, a maximum injection time of 85 ms and a fixed first mass of 100 m/z. […]

[3] = R179 dssAB mutant supernatant, XVM2 medium, replicate 1
[4] = R179 dssAB mutant supernatant, XVM2 medium, replicate 2
[5] = R179 dssAB mutant supernatant, XVM2 medium, replicate 3
[6] = R179 wt supernatant, XVM2 medium, replicate 2
[7] = R179 wt supernatant, XVM2 medium, replicate 3
[8] = axenic XVM2 medium control, replicate 1
[9] = axenic XVM2 medium control, replicate 2
[10] = axenic XVM2 medium control, replicate 3

Ac-SKEKFERTKPHVNVGTIG [elf18]
shoot growth (shoot weight) upon peptide treatment [1]: Shoot growth inhibition
peptide detected by mass spectrometry after incubation in supernatant of the R179 dssAB mutant ([2]; 1 µM peptide, 1 h, filter-sterile supernatant of dssAB mutant cultivated in XVM2 (OD600 = 0.4), LC-MS MS1 peak area, n = 3): depleted
peptide detected by mass spectrometry after incubation in supernatant of wild-type R179 ([2]; 1 µM peptide, 1 h, filter-sterile supernatant of wild-type R179 cultivated in XVM2 minimal medium (OD600 = 0.4), light chamber, LC-MS MS1 peak area, n = 3 culture supernatants): depleted
Log10(total_area_MS1) [2, 3]: 0
Log10(total_area_MS1) [2, 4]: 0
Log10(total_area_MS1) [2, 5]: 0
percent_rel_axenic [2, 3]: 0%
percent_rel_axenic [2, 4]: 0%
percent_rel_axenic [2, 5]: 0%
Log10(total_area_MS1) [2, 6]: 0
Log10(total_area_MS1) [2, 7]: 0
percent_rel_axenic ([2]; R179 wt supernatant, XVM2 medium, replicate 1): 0%
percent_rel_axenic [2, 6]: 0%
percent_rel_axenic [2, 7]: 0%
Log10(total_area_MS1) [2, 8]: 10.4989
Log10(total_area_MS1) [2, 9]: 10.552
Log10(total_area_MS1) [2, 10]: 10.527
percent_rel_axenic [2, 8]: 93.8398%
percent_rel_axenic [2, 9]: 106.053%
percent_rel_axenic [2, 10]: 100.108%
